{"source": "patent US20230381163A1", "about": "“DABIGATRAN COMPOSITIONS AND METHODS OF TREATING AGE-RELATED MACULAR DEGENERATION” (The United States Government As Represented By The …, priority 2022, published 2023)", "molecules": {"B1": {"name": "C5a: complement component, anaphylatoxin (Complement Technology) (protein, UniProt P01031 678-751, looked up)", "C5a anaphylatoxin": "TLQKKIEEIAAKYKHSVVKKCCYDGACVNNDETCEQRAARISLGPRCIKAFTECCVVASQLRANISHKDMQLGR", "modifications": "C5a anaphylatoxin"}}, "key": {"[1]": {"tested_on": "VEGF secretion in ARPE-19 cells", "experiment": "VEGF secretion into apical supernatant of ARPE-19 monolayers (ELISA)", "format": "cell-based, human", "description": "(§1) Cell culture experiments: Cells. […] Frontiers in Aging Neuroscience 9).\nVEGF ELISA. VEGF in the supernatant was measured using the Quantikine® Human VEGF Immunoassay (R & D System) according to the manufacturer's protocol. In brief, 200 μl of standard/sample was mixed with 50 μl of assay diluent and added to the plate precoated with the capture antibody. After washing, 200 μl of the VEGF detection antibody (polyclonal antibody specific for human VEGF conjugated to horseradish peroxidase) was added, followed by freshly prepared substrate reagents (stabilized hydrogen peroxide and tetramethylbenzidine). The reaction was terminated using 50 μl of stop solution and absorbance was measured at λ1 450 nm with wavelength correction λ2 at 540 nm. VEGF concentration of samples were calculated comparing the absorbance with the standards and converted into fold change considering the serum-free condition as 1 in the scale."}, "[2]": {"tested_on": "CTGF expression in ARPE-19 cells", "experiment": "Thrombin-induced CTGF expression in ARPE-19 cell lysates (western blot)", "conditions": "for reduction of thrombin-induced CTGF expression: thrombin 1 U/mL", "experimental": "Cell culture experiments: Cells. Human ARPE-19 (ATCC® CRL-2302™; American Type Culture Collection, Manassas VA) cells were cultured in DMEM cell culture media (Gibco/ThermoFisher Scientific) containing high glucose DMEM with D-glucose (4.5 g/L), L-glutamine, sodium pyruvate (110 mg/L), Penicillin and Streptomycin (1×) and 10% of FBS. Cells (<passage 10 after purchase) were expanded in T75 cell culture flasks at 37° C., in the presence of 5% CO2. Confluent cells were trypsinized with 0.05% trypsin (Gibco), and equal numbers of cells were seeded on 6-well transwell filters/plate (Costar). […] Integrity of the cell monolayer was assessed by Transepithelial resistance (TER) measurements using an EVOM volt-ohmmeter (World Precision Instruments) four weeks after plating. RPE monolayers with a stable TER repeatedly measured as ˜40-45 S2 cm 2 were used for these experiments.\nTreatments. Prior to each experiment, the cell monolayer was washed with serum-free medium (SFM) and maintained in SFM for 24 hours. […] Treatments were performed on the apical side of the transwell membrane, which represents the retinal side of the RPE in vivo. Some of the cells were treated with thrombin (EMD Millipore Corp), complement components C3a, C5a (Complement Technology), thrombin agonist PAR1-AP (Sigma-Aldrich; amino acid sequence SFLLRN (SEQ ID NO: 1)), thrombin inhibitor dabigatran etexilate (Sigma-Aldrich), C3 inhibitor compstatin (R&D Systems), AP inhibitor TT30 (Alexion Therapeutics), a protease inhibitor alpha1-antitrypsin (Sigma-Aldrich), and the thrombin receptor proteinase activated receptor 1 inhibitor SCH 79797 (Sigma-Aldrich). Treatments were performed 60 min prior to the addition of thrombin. Cell culture supernatant and lysate were collected after specific time points or after 24 hrs of treatment and stored at −20° C. for later use.\nWestern blotting. […] Cell lysates were collected in RIPA cell lysis buffer containing 150 mM NaCl, 1.0% IGEPAL® CA-630, 0.5% sodium deoxycholate, 0.1% SDS, 50 mM Tris (pH 8.0) (Sigma-Aldrich) in presence of 1×protease inhibitor (Sigma-Aldrich). Equal amount of each samples were loaded on 4-20% Criterion™ TGX™ precast gels (Bio-Rad Laboratories, Inc.) (Annamalai, B., et al. (2020). Invest Ophthalmol Vis Sci 61, 45). Proteins were transferred to a nitrocellulose membrane and incubated in primary antibody followed by appropriate secondary antibodies coupled to peroxidase, followed by band development and detection using Clarity™ Western ECL blotting substrate (Bio-Rad Laboratories, Inc.) and chemiluminescent detection. Protein bands were scanned and densities quantified using ImageJ software. The following antibodies were used: C3a (1:1000; Complement Technology), C5a (1:1000; Abcam), connective tissue growth factor/CTGF (1:1000; Abcam), C3d anti-C3d (clone 11, 1:1000; generation of the antibody is described in (Thurman, J. M., et al. (2013). J Clin Invest 123, 2218-2230)), VEGF (1:1000, Santa Cruz Biotechnology, Inc.), β-actin (1:2000; Cell Signaling Technology) and concentrations selected based on the data sheet recommendations.\nARPE-19 cell monolayers were treated with thrombin (0.5-10 U/ml) and cell lysates were collected and analyzed for CTGF levels at 4 hrs post treatment by western blotting."}, "thrombin": {"target": "thrombin (Homo sapiens, UniProt P00734)", "experiment": "Thrombin activity in cell-free system", "conditions": "100 μM", "experimental": "Thrombin activity in cell-free system. To measure the level of active thrombin in cell-free system, known concentrations of thrombin were prepared in 100 μl of assay buffer (50 mM Tris, 100 mM NaCl, and 0.01% BSA; pH 7.5), subsequently 50 μl of thrombin substrate was added and incubated at 37° C. Fluorescence was measured at 405 nm using the Biotek Synergy HT Microplate Reader and thrombin activity was determined by extrapolation from a thrombin standard curve. Effects of inhibitors were tested by pre-incubating the inhibitors with thrombin, before substrate incorporation."}, "complement component C3": {"tested_on": "complement component C3", "experiment": "Thrombin-mediated C3 cleavage in apical supernatants of ARPE-19 cells (western blot)", "format": "cell-based, human", "conditions": "100 μM", "description": "Second, it was tested whether thrombin can cleave complement components (Huber-Lang, M., et al. (2006). Nat Med 12, 682-687; and Krisinger, M. J., et al. (2012). Blood 120, 1717-1725), specifically C3 and C5, producing cleavage products potentially different from those produced by classical convertases. To test the effects of thrombin on complement cleavage, the apical supernatants of treated ARPE-19 cell monolayers were analyzed by western blotting. Cleavage of C3α was evaluated using an antibody specific for C3a (FIG. 5A, left-hand blot). The C3a antibody detected C3, the C3α band as well as other fragments containing C3a. Thrombin caused a concentration dependent cleavage of complement component C3 (˜190 kDa), caused reduction of the 120 kDa C3a band and generation of a new 80 kDa fragment. Fragments at 32 kDa and 9-10 kDa with higher doses of thrombin treatment (FIG. 5A, 10 U/mL) were also observed. The 9-10 kDa band ran at the same molecular weight as purified C3a (FIG. 11). The reduction of the 120 kDa fragment was correlated with the generation of the 80 kDa fragment (FIG. 5B). The loss of the 120 kDa fragment was prevented by either dabigatran (10 μM) or the C3 inhibitor compstatin (100 μM), which inhibits complement both on cell membranes as well as in fluid phase, but not by TT30 (10 μM), which is an inhibitor that prevents membrane-bound AP activation (FIG. 5C). […]"}, "ARPE-19 cell monolayers": {"tested_on": "ARPE-19 cell monolayers", "experiment": "Transepithelial resistance (TER) of ARPE-19 monolayers", "format": "cell-based, human", "description": "as §1\nThrombin reduces barrier function in RPE cells and induces CTGF expression and VEGF secretion. […] Thrombin is a serine-protease and is a known contributor to the damage of the blood-brain barrier (Machida, T., et al. (2017). PLoS One 12, e0177447). To examine the effects of thrombin on the blood-retina barrier (i.e., TER), dose- (0.5-10.0 U/ml) and time- (4 and 24 hrs) dependent treatments were performed on stable ARPE-19 cell monolayers, and treatment effects on TER levels to TER at baseline (serum free media/SFM before treatment, 0 hrs) (FIG. 2) were compared."}}}
{"molecule": "CC(C)c1ccc(Cn2ccc3c4c(N)nc(NC5CC5)nc4ccc32)cc1", "note": "[SCH79797]", "values": [{"measurement": "effect on thrombin-induced VEGF secretion", "setting": "[1]; SCH79797", "value": "reduced"}, {"measurement": "reduction of thrombin-induced CTGF expression", "setting": "[2]; SCH79797 250 μM", "value": 1.7, "unit": "fold"}]}
{"molecule": "CC[C@H](C)[C@H](N)C(=O)N[C@H]1CSSC[C@@H](C(=O)N[C@H](C(N)=O)[C@@H](C)O)NC(=O)[C@H](CCCN=C(N)N)NC(=O)[C@H](Cc2cnc[nH]2)NC(=O)[C@H](Cc2cnc[nH]2)NC(=O)CNC(=O)[C@H](Cc2c[nH]c3ccccc23)NC(=O)[C@H](CC(=O)O)NC(=O)[C@H](CCC(N)=O)NC(=O)[C@H](C(C)C)NC(=O)[C@H](C(C)C)NC1=O", "note": "[compstatin]", "values": [{"measurement": "effect on thrombin enzyme activity", "setting": "thrombin", "value": "did not affect"}, {"measurement": "effect on thrombin-mediated loss of the 120 kDa C3 fragment", "setting": "complement component C3", "value": "prevented"}, {"measurement": "effect on thrombin-induced VEGF secretion", "setting": "[1]; compstatin", "value": "partially reduce"}, {"measurement": "effect on thrombin-induced CTGF expression", "setting": "[2]; compstatin", "value": "partially reduce"}]}
{"molecule": "C3a: complement component, anaphylatoxin (Complement Technology)", "values": [{"measurement": "effect on VEGF secretion", "setting": "[1]; C3a, 260 nM", "value": "weak stimulator"}]}
{"molecule": "alpha1-antitrypsin: general (non-specific) protease inhibitor (Sigma-Aldrich)", "values": [{"measurement": "reduction of thrombin-induced CTGF expression", "setting": "[2]; alpha1-antitrypsin 1 mg/mL", "value": 5.3, "unit": "fold"}]}
{"molecule": "thrombin", "values": [{"measurement": "effect on TER", "setting": "ARPE-19 cell monolayers; thrombin 0.5 U/mL, apical", "value": "barely affected"}, {"measurement": "effect on TER", "setting": "ARPE-19 cell monolayers; thrombin 2.5 U/ml, 24 hrs", "value": "significant damage to the epithelial barrier integrity"}, {"measurement": "effect on TER", "setting": "ARPE-19 cell monolayers; thrombin 5 U/ml and 10 U/ml, 4 hrs", "value": "significant barrier function loss"}, {"measurement": "increase of VEGF in apical supernatants", "setting": "[1]; thrombin alone", "value": 2.5, "unit": "fold"}, {"measurement": "effect on CTGF expression", "setting": "[2]; thrombin, 4 hrs, P<0.05", "value": "significantly increased"}]}
{"molecule": "B1", "values": [{"measurement": "effect on VEGF secretion", "setting": "[1]; C5a, 52 nM", "value": "increasing VEGF levels to that identified by thrombin stimulation"}]}
